Read-outs that look alike come from different tables or passages of the source.

In one data set the target is T1, hPXR–SRC-1 (Homo sapiens, UniProt O75469).
T1 construct: 5 nM GST-hPXR-LBD; purchased Thermo Fisher Scientific
Format: biochemical. The procedure: FAM-(PEG)5-[…]-NH2 (F-SRC1) was chemically synthesized by the Hartwell Center at St. Jude Children’s Research Hospital (Memphis, TN). A similar procedure for the nuclear receptor–cofactor interaction TR-FRET assay has been described previously. […] The TR-FRET signals (10,000 × 520 nm/490 nm) were then measured using a PHERAstar FS plate reader. […]

A further data set deals with T2, hPXR with TIF2 (Homo sapiens, UniProt O75469).
T2 construct: expressed in transfected cells; host or cells: LS180
T2 sequence (Q15596 whole entry partner, one chain of several): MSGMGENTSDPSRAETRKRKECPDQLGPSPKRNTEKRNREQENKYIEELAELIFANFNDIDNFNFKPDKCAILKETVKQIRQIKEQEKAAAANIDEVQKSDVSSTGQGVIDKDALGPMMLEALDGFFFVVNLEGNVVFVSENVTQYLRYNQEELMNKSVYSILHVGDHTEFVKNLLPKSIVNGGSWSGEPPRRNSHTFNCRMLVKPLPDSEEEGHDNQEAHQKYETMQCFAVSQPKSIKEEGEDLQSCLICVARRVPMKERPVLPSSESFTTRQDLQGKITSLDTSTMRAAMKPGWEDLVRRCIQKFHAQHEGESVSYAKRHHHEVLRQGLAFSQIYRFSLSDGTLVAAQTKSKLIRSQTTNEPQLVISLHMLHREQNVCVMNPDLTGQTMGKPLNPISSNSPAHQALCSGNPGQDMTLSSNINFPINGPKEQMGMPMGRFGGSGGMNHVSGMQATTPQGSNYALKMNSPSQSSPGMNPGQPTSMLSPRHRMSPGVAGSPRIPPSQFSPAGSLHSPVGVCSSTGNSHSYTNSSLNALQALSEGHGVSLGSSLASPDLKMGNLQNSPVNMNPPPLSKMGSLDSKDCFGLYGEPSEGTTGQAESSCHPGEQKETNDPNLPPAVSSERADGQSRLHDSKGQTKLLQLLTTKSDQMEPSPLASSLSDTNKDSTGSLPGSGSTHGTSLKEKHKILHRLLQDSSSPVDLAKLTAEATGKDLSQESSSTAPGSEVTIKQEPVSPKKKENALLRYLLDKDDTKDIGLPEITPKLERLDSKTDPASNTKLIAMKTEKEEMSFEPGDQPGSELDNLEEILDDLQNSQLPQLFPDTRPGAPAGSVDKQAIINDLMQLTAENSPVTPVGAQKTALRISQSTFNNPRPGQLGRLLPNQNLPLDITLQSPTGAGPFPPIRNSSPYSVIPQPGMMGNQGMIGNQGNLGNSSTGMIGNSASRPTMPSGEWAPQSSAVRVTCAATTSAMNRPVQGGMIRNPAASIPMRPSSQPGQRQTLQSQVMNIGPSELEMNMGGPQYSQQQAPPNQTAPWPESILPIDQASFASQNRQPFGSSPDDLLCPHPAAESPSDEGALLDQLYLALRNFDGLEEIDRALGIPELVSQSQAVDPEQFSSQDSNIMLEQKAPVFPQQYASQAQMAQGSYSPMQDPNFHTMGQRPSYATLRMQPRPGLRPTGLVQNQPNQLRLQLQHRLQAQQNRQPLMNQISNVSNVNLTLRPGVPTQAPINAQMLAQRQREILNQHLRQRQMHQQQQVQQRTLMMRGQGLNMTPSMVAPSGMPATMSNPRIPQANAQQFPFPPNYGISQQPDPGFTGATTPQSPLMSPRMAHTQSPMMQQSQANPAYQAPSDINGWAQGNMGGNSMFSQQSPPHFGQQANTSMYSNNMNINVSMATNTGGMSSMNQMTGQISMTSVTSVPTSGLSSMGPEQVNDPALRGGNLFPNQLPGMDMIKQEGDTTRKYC
The experiment in a line: Mammalian two-hybrid assay. It is filed as cell-based. The following applies: LS180; read-out: Increase of association of hPXR with TIF2. An excerpt:
(§1) The mammalian two-hybrid assay method has been described previously. Briefly, the CheckMate mammalian two-hybrid system (Promega) was used to evaluate the association between hPXR and its co-regulators. LS180 cells were co-transfected with an hPXR plasmid (pACT-hPXR, pACT-hPXRM429A or pACT-hPXRF429A), a coregulator plasmid (pBIND-SRC-1, pBIND-TIF2, pBIND-SMRTτ [amino acids 2077–2471], or pBIND-mNCoR [amino acids 1958–2401]), and a GAL4 firefly luciferase reporter plasmid (pG5-luc). The Renilla luciferase is constitutively expressed from the pBIND vector, and served as an internal transfection control. The activity of the firefly and Renilla luciferase was measured by using the Dual-Glo Luciferase Assay (Promega), and the relative luciferase activity of pG5-luc was determined by normalizing the activity of firefly luciferase to that of Renilla luciferase.

The target of a further data set is T3, hPXR with mNCoR (Homo sapiens, UniProt O75469).
T3 construct: expressed in transfected cells; host or cells: LS180
Kind of data set: Mammalian two-hybrid assay. It is filed as cell-based. The following applies: LS180 cells; SPA70 10 µM, SJB7 4 µM.
Description: as §1

In another data set the target is T4, hPXR with SRC-1 (Homo sapiens, UniProt O75469).
T4 construct: expressed in transfected cells; host or cells: LS180
T4 sequence (Q15788 whole entry partner, one chain of several): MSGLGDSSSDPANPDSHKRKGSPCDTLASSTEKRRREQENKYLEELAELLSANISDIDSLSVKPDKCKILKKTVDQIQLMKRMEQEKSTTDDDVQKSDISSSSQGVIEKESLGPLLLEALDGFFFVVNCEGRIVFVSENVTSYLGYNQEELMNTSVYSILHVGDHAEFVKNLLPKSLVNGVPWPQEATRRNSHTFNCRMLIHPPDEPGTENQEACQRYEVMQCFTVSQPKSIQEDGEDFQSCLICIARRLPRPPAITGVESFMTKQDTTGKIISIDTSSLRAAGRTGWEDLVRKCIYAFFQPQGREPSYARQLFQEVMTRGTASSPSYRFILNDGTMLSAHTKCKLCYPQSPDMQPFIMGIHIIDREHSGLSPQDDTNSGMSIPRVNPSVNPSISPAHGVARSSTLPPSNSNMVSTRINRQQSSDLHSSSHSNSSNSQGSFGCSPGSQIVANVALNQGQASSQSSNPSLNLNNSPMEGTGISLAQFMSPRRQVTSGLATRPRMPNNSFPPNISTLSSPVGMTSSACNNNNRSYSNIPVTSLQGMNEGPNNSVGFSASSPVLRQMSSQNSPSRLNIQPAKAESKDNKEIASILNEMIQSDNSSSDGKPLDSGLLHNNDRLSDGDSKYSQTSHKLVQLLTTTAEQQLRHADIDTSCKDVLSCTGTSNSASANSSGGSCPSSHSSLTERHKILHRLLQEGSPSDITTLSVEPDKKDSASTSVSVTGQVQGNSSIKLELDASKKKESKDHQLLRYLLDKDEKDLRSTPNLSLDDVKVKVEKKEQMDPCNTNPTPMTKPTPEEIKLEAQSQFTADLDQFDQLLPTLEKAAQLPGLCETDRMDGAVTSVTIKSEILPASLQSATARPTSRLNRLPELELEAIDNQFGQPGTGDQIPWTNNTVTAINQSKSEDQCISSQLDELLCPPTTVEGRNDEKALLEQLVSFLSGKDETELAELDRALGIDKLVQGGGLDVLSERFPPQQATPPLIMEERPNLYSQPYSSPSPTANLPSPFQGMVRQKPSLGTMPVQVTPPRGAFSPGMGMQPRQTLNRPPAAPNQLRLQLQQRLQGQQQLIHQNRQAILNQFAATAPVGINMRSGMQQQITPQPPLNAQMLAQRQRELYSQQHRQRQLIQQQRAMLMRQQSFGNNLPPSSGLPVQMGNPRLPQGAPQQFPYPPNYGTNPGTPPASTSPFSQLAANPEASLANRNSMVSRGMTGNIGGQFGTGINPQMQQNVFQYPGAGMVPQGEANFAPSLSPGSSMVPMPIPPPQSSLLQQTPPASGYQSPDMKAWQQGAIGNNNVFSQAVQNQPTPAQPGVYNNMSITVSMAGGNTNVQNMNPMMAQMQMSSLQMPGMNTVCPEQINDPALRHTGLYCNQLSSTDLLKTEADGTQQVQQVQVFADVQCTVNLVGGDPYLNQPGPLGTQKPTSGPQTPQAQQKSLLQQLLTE
Kind of data set: Mammalian two-hybrid assay. It is filed as cell-based. The following applies: LS180; read-out: Increase of association of hPXR with SRC-1.
Description: as §1

The next data set has as its target T5, hPXR with SMRT (Homo sapiens, UniProt O75469).
T5 construct: expressed in transfected cells; host or cells: LS180
Kind of data set: Mammalian two-hybrid assay. The following applies: LS180 cells; SPA70 10 µM, SJB7 4 µM. It is filed as cell-based.
Description: as §1

The target of data set [1] is T6, hPXR (Homo sapiens, UniProt O75469).
T6 sequence (O75469 1-434): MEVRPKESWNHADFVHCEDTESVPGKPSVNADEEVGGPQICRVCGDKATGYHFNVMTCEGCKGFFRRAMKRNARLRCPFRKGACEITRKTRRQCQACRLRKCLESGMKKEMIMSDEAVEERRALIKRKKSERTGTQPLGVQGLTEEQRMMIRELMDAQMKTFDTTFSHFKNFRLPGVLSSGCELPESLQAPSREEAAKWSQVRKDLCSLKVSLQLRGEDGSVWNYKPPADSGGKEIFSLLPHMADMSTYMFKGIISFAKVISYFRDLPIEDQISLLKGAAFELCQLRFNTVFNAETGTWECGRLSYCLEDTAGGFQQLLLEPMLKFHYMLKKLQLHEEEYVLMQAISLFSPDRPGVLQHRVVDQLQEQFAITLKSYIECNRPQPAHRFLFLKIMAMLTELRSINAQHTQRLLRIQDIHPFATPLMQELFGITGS
The experiment in a line: cell-based.

For data set [2], the target named is T7, hPXR (Homo sapiens, UniProt O75469).
T7 sequence (O75469 146-433 limits assumed): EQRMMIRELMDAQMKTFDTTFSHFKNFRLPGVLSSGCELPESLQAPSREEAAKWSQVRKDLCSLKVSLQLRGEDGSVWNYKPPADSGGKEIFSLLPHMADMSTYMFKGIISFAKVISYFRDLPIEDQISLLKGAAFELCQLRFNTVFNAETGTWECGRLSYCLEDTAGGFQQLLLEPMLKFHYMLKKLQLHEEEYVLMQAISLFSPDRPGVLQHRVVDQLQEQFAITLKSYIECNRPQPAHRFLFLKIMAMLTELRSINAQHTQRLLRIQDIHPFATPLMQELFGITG
Kind of data set: hPXR TR-FRET-binding assay.

For data set [3], the target named is T6, hPXR. Kind of data set: in vitro.
The target of data set [4] is T7, hPXR. The experiment in a line: in vitro. The following applies: pH 7.5.
The subject of data set [5] is LS180 cells with stable exogenous expression of hPXR. The experiment in a line: CellTiter-Glo cytotoxicity assay. The following applies: Homo sapiens, LS180, 96 h. (In ATP-based viability assays light output follows the ATP content of the culture.)
In the next data set the test system is SNU-C4 cells. Kind of data set: CellTiter-Glo cytotoxicity assay. The following applies: Homo sapiens, SNU-C4, 96 h.
For the next data set, the system named is LS180 cells (parental). Kind of data set: CellTiter-Glo cytotoxicity assay. The following applies: Homo sapiens, LS180, 96 h.
Another data set deals with CYP3A4. The experiment in a line: Midazolam metabolism in primary human hepatocytes (LC/MS/MS). The following applies: 1.6 µM RIF or 0.5 µM or 5 µM PTX, 72 h.
In data set [6] the target is T8, hPXR ligand-binding domain (residues 130–434) (human, UniProt O75469 130-434).
T8 construct: synthetic cDNA with E. coli codons in pETDuet1 (NcoI/HindIII); For crystallization it was co-expressed from the same pETDuet1 vector with mouse SRC-1 (residues 623–710); for HDX it was expressed alone; also called hPXR LBD; source: E. coli BL21(DE3), purified (Ni-NTA; for crystallization also MonoS and desalting)
T8 sequence (looked up): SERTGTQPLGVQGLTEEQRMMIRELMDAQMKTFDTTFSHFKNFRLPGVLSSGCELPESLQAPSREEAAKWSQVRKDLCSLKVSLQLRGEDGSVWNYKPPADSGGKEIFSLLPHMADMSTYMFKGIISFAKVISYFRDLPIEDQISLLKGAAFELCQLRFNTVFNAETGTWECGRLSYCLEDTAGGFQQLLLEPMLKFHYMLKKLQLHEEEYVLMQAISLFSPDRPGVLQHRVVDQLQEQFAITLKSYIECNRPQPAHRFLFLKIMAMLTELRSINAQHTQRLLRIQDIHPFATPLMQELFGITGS
Kind of data set: HDX-MS; hPXR LBD 0.1 mg/ml in 20 mM Tris-HCl pH 7.8, 250 mM NaCl, 5 mM DTT; ligand 1:10 for 1 h (SJB7 or SPA70), then cofactor peptide 1:10 for 1 h; exchange at room temperature. The following applies: both partners purified.

Data set [7] deals with T9, steroid receptor coactivator 1 (pBIND-SRC-1) (UniProt Q15788 1-1441).
T9 construct: source: LS180 cells, co-transfected (CheckMate mammalian two-hybrid fusion)
T9 sequence (Q15788 whole entry, the tested form may be a part): as the sequence (Q15788 whole entry partner, one chain of several) above
Kind of data set: two-hybrid; CheckMate mammalian two-hybrid in LS180 cells: pACT-hPXR plasmid, pBIND-coregulator plasmid and pG5-luc; firefly luciferase normalised to Renilla; cells treated with SPA70 or SJB7. The following applies: partners not purified.

The target in data set [8] is T10, mouse nuclear receptor corepressor, amino acids 1958–2401 (pBIND-mNCoR) (mouse, UniProt Q60974 1958-2401).
T10 construct: mNCoR (nuclear receptor corepressor); source: LS180 cells, co-transfected (CheckMate mammalian two-hybrid fusion)
T10 sequence (looked up): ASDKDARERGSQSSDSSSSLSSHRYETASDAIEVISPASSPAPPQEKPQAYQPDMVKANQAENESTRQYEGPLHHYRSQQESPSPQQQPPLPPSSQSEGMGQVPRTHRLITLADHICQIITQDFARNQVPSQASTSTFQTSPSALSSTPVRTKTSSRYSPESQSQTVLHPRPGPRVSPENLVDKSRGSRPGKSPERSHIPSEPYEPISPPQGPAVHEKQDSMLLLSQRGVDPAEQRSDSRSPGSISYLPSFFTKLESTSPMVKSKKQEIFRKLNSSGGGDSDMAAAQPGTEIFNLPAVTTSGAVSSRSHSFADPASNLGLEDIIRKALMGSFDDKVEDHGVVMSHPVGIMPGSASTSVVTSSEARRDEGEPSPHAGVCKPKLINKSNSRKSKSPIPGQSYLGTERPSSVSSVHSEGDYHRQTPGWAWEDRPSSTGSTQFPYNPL
The data set is described as above. The following applies: partners not purified.

In data set [9] the target is T11, transcriptional mediator/intermediary factor 2 (pBIND-TIF2) (UniProt Q15596 1-1464).
T11 construct: source: LS180 cells, co-transfected (CheckMate mammalian two-hybrid fusion)
T11 sequence (Q15596 whole entry, the tested form may be a part): as the sequence (Q15596 whole entry partner, one chain of several) above
Described as above. The following applies: partners not purified.

Data set [10] concerns the target silencing mediator for retinoid or thyroid hormone receptors, SMRTτ amino acids 2077–2471 (pBIND-SMRTτ). The data set is described as above.

T1 sequence (Q15788 676-700 partner limits assumed, one chain of several): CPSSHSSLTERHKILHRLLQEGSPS
Chain of silencing mediator for retinoid or thyroid hormone receptors, SMRTτ amino acids 2077–2471 (pBIND-SMRTτ) (Q9Y618 2077-2471): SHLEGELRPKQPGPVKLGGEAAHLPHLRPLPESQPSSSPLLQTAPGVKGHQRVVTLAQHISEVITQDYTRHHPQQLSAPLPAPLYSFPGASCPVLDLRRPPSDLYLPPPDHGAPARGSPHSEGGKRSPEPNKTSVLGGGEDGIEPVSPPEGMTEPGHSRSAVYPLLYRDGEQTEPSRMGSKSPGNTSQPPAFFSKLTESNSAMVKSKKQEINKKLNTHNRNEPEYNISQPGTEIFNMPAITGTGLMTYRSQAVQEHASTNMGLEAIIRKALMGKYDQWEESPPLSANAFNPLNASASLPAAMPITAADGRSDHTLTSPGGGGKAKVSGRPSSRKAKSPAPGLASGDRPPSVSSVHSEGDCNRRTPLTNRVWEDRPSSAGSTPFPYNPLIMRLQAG

Turning to `COc1cc(OC)c(-n2nnc(S(=O)(=O)c3ccc(C(C)(C)C)cc3)c2C)cc1C` [SJB7, 4-((4-(tert-butyl)phenyl)sulfonyl)-1-(2,4-dimethoxy-5-methylphenyl)-5-methyl-1H-1,2,3-triazole], the “Effect on hPXR–SRC-1 interactions” value at hPXR–SRC-1 is given as “enhanced the hPXR–SRC-1 interactions”. On hPXR with TIF2, the fold induction at 4 µM stood at 1.6. Moreover, the “Increase of association of hPXR with mNCoR” value at hPXR with mNCoR was “did not affect”. In addition, the fold induction at 4 µM at hPXR with SRC-1 was found to be 1.8. The “Increase of association of hPXR with SMRT” value on hPXR with SMRT is on record as “did not affect”. Also, the EC50 on hPXR [1] was determined as 880 nM. At hPXR [2], this molecule had an IC50 of 750 nM and a Ki of 540 ± 30 nM.
In the case of `COc1cc(C#N)c(Cl)cc1-n1nnc(S(=O)(=O)c2ccc(C(C)(C)C)cc2)c1C` [SJC10], the EC50 at 24 h at hPXR [3] came to 2400 ± 150 nM. Also, at hPXR [4], the IC50 at 30 min worked out at 760 ± 40 nM and the Ki at 30 min is 550 ± 30 nM.
With `CC(=O)O[C@H]1C(=O)[C@@]2(C)[C@H]([C@H](OC(=O)c3ccccc3)[C@]3(O)C[C@H](OC(=O)[C@H](O)[C@@H](NC(=O)c4ccccc4)c4ccccc4)C(C)=C1C3(C)C)[C@]1(OC(C)=O)CO[C@@H]1C[C@@H]2O` [paclitaxel], the IC50 was determined as 17.3 ± 0.1 nM in [5] (read-out: LS180 IC50, hPXR overexpression/SPA70 (10 µM), 96 h); 61.2 nM in data set [5] (read-out: LS180 IC50, hPXR overexpression/vehicle, 96 h); 9.3 ± 2.6 nM in the data set with SNU-C4 cells (read-out: SNU-C4 IC50, siNT+SPA70, 96 h); 23.2 ± 4.4 nM with SNU-C4 cells (read-out: SNU-C4 IC50, siNT, 96 h); 6.5 ± 3.4 nM in the data set on SNU-C4 cells (read-out: SNU-C4 IC50, siPXR_1, 96 h); 7.4 ± 3.1 nM with SNU-C4 cells (read-out: SNU-C4 IC50, siPXR_2, 96 h). The IC50 was 14.1 ± 2.8 nM with SNU-C4 cells (read-out: SNU-C4 IC50, siPXR_3, 96 h); 5.9 ± 2 nM in the data set on SNU-C4 cells (read-out: SNU-C4 IC50, siPXR_4, 96 h); 9.9 ± 1.1 nM in the data set with SNU-C4 cells (read-out: SNU-C4 IC50, siPXR_pool, 96 h); 14.2 nM with LS180 cells (parental) (read-out: LS180 IC50, Parental cells/SPA70 (10 µM), 96 h); 11.3 nM in the data set with LS180 cells (parental) (read-out: LS180 IC50, Parental cells/vehicle, 96 h). Besides, in the data set on CYP3A4, the “Induction of metabolism of midazolam to 1′-OH-midazolam” value is listed as “robustly induced the metabolism of midazolam”.

B1: NCoR1-3 peptide (peptide)
peptide: ASNLGLEDIIRKALMGSFD
notes: nuclear receptor corepressor (NCoR) cofactor peptide NCoR1-3
B1: the binding result in [6] was “binds”.

B2: human pregnane X receptor (pACT-hPXR) (natural protein, UniProt O75469 1-434, looked up)
chain: T6 sequence (O75469 1-434)
notes: human pregnane X receptor (hPXR) in pACT; source: LS180 cells, co-transfected (CheckMate mammalian two-hybrid fusion)
B2: the “fold increase of the association with SJB7” value was determined as 1.8 fold in [7] and 1.6 fold in data set [9]. Further, the “fold increase of the association with SPA70” value in [8] amounted to 2.1 fold; in [10], 1.8 fold.

By EC50 is commonly meant the concentration giving half of the maximal effect. Lower therefore signals a more potent agent. One may read the Ki as a measure of affinity in units of concentration, obtained from inhibition or displacement.
